Results taken from patent US8728797B2, “Yeast membrane protein expression system and its application in drug screening” (priority 2001, dated 2014).
≈ marks a conversion by molar mass, not a printed value.

Columns and labels:
AD124567 cells = assay: Glucose-dependent rhodamine 6G efflux; type: cell-based, S. cerevisiae; settings: 40 μM KN20, 5 minute preincubation
Experimental: De-energised cells were pre-loaded with rhodamine 6G, as described in Materials and methods for Example 4. The efflux of rhodamine 6G at 30° C. was followed by direct measurement of fluorescence in cell supernatants following glucose (2 mM) addition to cell suspensions. (A) The kinetics of energy-dependent rhodamine 6G efflux in strains AD1002 (▪) and AD1-8u^− (●). The fluorescence in supernatants of AD1002 cells in the absence of added glucose is also shown (◯). (B) The effect of KN20 concentration on the energy-dependent efflux of rhodamine 6G from AD124567 cells. The indicated concentrations of KN20 were added to AD124567 cells preloaded with rhodamine 6G, the cells were preincubated for 5 minutes at 30° C. and glucose added to commence rhodamine efflux.
A previously described method (Kolaczkowski, M et al. 1996) was adapted to measure rhodamine 6G (Sigma) efflux from whole cells. Yeast cells from exponentially growing cultures in YEPD (OD600 nm=0.5) were collected by centrifugation (3,000×g, 5 min, 20° C.) and washed three times with water. The washed cells were resuspended at a concentration of 0.5×10^6 to 1.0×10^7 cells per ml in HEPES-NaOH (50 mM, pH 7.0) containing 5 mM 2-deoxyglucose and 10 μM rhodamine 6G. […] The rhodamine 6G fluorescence of samples was measured using a Cary Eclipse spectrofluorimeter (Varian Inc, Victora Australia). […]

AD-ERG11 (Erg11p) [1] = assay: Disk diffusion assay, AD-ERG11; type: cell-based, S. cerevisiae; settings: AD-pABC as negative control, 30° C., 48 h
Experimental: The cells were spread on CSM-agar plates and exposed to the drugs or chemicals applied to filter disks and incubated at 30° C. for 48 h. The amounts of individual drugs are given in the Materials and Methods section of Example 3. Rhodamine 6G and rhodamine 123 were dissolved in ethanol and the other antifungals were dissolved in DMSO.
Drug susceptibility was measured using disk assays on CSM-URA plates (containing 1.5% w/v agar). Yeast cells (200 μl ml of 5×10^6 cells/ml) were spread on the plates. 10 μl of drug solution or solvent control were spotted onto sterile Whatman paper disks on the pre-spread plates. The following amounts (nmoles) of drugs were applied to individual disks: fluconazole, 633 (Pfizer Ltd., Sandwich, Kent, United Kingdom); itraconazole, 0.23 (Janssen); miconazole, 0.42 (Janssen); cycloheximide, 0.71 (Sigma); rhodamine 6G, 100 (Sigma, Penrose, Auckland, N. Z.); rhodamine 123, 125 (Sigma); cerulenin 4.5 (Sigma); 5-flucytosine 100 (Sigma); amphotericin B, 97 (E. R. Squibb & Sons, Princeton, N.J.); nystatin 65 (Sigma). Agar plates were incubated at 30° C. for 48 h or until clear growth inhibition zones were visible.

[2] = test system: S. cerevisiae AD1-8u^− hyper-expressing CDR1-1; assay: MIC, CDR1 allele 1 hyper-expressed; type: cell-based; settings: Saccharomyces cerevisiae; hyper-expression of CDR1-1 allele
Experimental: (§1) The MICs of antifungal agents for S. cerevisiae cells were determined by a microdilution test based on the macrodilution reference method of the National Committee for Clinical Laboratory Standards. Cells (10 μl cell suspension, 2×10^5 cells/ml) were inoculated into 90 μl CSM-URA, buffered with 10 mM 2-(N-morpholino)ethanesulfonic acid (MES) and 18 mM N-2-hydroxyethylpiperazine-N′-2-ethanesulfonic acid (HEPES), pH 7.0 and containing 0.67% (w/v) yeast nitrogen base (YNB) in microtitre plate wells. For the uracil-requiring strain AD1-8u^− the medium was supplemented with 0.02% (w/v) uridine. The wells contained, in […], doubling dilutions of antifungal agents (final concentrations: fluconazole, 40-0.078 μg/ml; itraconazole and ketoconazole, 8-0.016 μg/ml). The microtitre plates were incubated at 30° C. for 48 h with shaking and then the growth of cells in individual wells (OD590) was measured with a microplate reader (EL 340, Bio-Tek, Winooski, Vt.). The MIC80 was the lowest concentration of drug that inhibited growth yield by at least 80% compared to a no-drug control.

AD-ERG11 (Erg11p) [3] = assay: MIC in liquid microdilution assay, AD-ERG11; type: cell-based, S. cerevisiae; settings: Saccharomyces cerevisiae
Experimental: as §1

AD-pABC3 = assay: MIC in liquid microdilution assay, AD-pABC3 control; type: cell-based, S. cerevisiae; settings: Saccharomyces cerevisiae; AD-pABC3 negative control strain
Experimental: as §1

[4] = test system: S. cerevisiae AD1-8 sec6-4; assay: MIC microdilution test, sec6-4 host; type: cell-based; settings: Saccharomyces cerevisiae, AD18SEC64, 30° C.
Experimental: as §1

[5] = test system: S. cerevisiae AD1002 expressing C. albicans Cdr1p; assay: MIC microdilution test, strain expressing Cdr1p; type: cell-based
Experimental: as §1

Compound | inhibition of rhodamine 6G efflux (AD124567 cells) | resistance/sensitivity in disk diffusion assay (AD-ERG11 (Erg11p) [1]) | MIC [2] | MIC (AD-ERG11 (Erg11p) [3]) | MIC (AD-pABC3) | MIC80 [4] | MIC80 ([5]; AD1002 expressing Cdr1p, 30° C., 48 h, pH 7.0) | fold increase in MIC ([5]; AD1002 relative to parental AD1-8u^−)
D-octapeptide NH2-Asn-Trp-Trp-Lys-Val-Arg-Arg-Arg-CONH2 with a single 4-methoxy-2,3,6-trimethylbenzenesulphonyl (Mtr) substituent on one tryptophan sidechain; Pdr5p inhibitor [KN20] | 50% |  |  |  |  |  |  | 
OC(Cn1cncn1)(Cn1cncn1)c1ccc(F)cc1F [fluconazole] |  | modest resistance | 400 µg/mL (≈ 1310 µM) | 2 µg/mL (≈ 6.53 µM) | 0.5 µg/mL (≈ 1.63 µM) | 0.5 µg/mL (≈ 1.63 µM) | 30 µg/mL (≈ 98 µM) | > 45 fold
